Our source for the MIC and IC90 values is article PMC11748363, “Antimicrobial and Antiproliferative Properties of 2‐Phenyl‐N‐(Pyridin‐2‐yl)acetamides” (Chemical Biology & Drug Design, 2025).

In brackets after ≈: the same amount, converted by molar mass. Where two headings read alike, the source gives them in different places. A value given as a limit tells only on which side of the number the result lay.

Test [1] concerns Candida albicans CCM 8320, ATCC 24433. Briefly: Antifungal microdilution broth MIC, CA. The settings on record: for MIC: 24 h, read-out: MIC visual detection, CA; for IC90: ATCC24433|CCM8320, 24 h. Background: In broth dilution the organism is exposed to a series of concentrations in liquid medium.
For test [2], the system named is Aspergillus fumigatus ATCC 204305. Briefly: Antifungal microdilution broth MIC, AF. Particulars: ATCC204305, 48 h; for MIC: read-out: MIC visual detection, AF.
Test [3] relates to Candida parapsilosis CCM 8260, ATCC 22019. Briefly: Antifungal microdilution broth MIC, CP. Particulars: Lodderomyces parapsilosis, ATCC22019|CCM8260, 24 h; for MIC: read-out: MIC visual detection, CP.
For test [4], the system named is Aspergillus flavus CCM 8363. Kind of test: Antifungal microdilution broth MIC, AFla. The settings on record: CCM8363, 48 h; for MIC: read-out: MIC visual detection, AFla.
The test system of test [5] is Candida krusei CCM 8271, ATCC 6258. Briefly: Antifungal microdilution broth MIC, CK. The settings on record: Pichia kudriavzevii; for MIC: 24 h, read-out: MIC visual detection, CK; for IC90: ATCC6258|CCM8271, 24 h.
Test [6] deals with Lichtheimia corymbifera CCM 8077. Briefly: Antifungal microdilution broth MIC, LC. Particulars: CCM8077, 48 h; for MIC: read-out: MIC visual detection, LC.
Test [7] deals with Trichophyton interdigitale CCM 8377, ATCC 9533. Kind of test: Antifungal microdilution broth MIC, TI. The settings on record: Trichophyton interdigitale, ATCC9533|CCM8377, 48 h; for MIC: read-out: MIC visual detection, TI.
The subject of test [8] is Candida tropicalis CCM 8264, ATCC 750. Briefly: Antifungal microdilution broth MIC, CT. The settings on record: for MIC: 24 h, read-out: MIC visual detection, CT; for IC90: ATCC750|CCM8264, 24 h.
The subject of test [9] is Mycobacterium tuberculosis H37Ra. Kind of test: Antimycobacterial microdilution broth MIC (resazurin), Mtb H37Ra. The class given is cell-based. Particulars: Mycobacterium tuberculosis, H37RA.
In test [10] the test system is Mycolicibacterium smegmatis DSM 43465. Briefly: Antimycobacterial microdilution broth MIC (resazurin), M. smegmatis. The format is cell-based. Particulars: DSM43465, read-out: MIC M. smegmatis (μg/mL).
In test [11] the test system is Mycolicibacterium aurum DSM 43999. Kind of test: Antimycobacterial microdilution broth MIC (resazurin), M. aurum. The format is cell-based. The settings on record: DSM43999, read-out: MIC M. aurum (μg/mL).
Test [12] relates to Staphylococcus aureus subsp. aureus CCM 4750, ATCC 43300 (MRSA). Briefly: Antibacterial microdilution broth MIC, MRSA. The format is cell-based. The settings on record: Staphylococcus aureus, internal quality controls, 24h.
The subject of test [13] is Enterococcus faecalis CCM 4224, ATCC 29212. Kind of test: Antibacterial microdilution broth MIC, EF. The format is cell-based.
Test [14] concerns Escherichia coli CCM 3954, ATCC 25922. Briefly: Antibacterial microdilution broth MIC, EC. The format is cell-based.
For test [15], the system named is Acinetobacter baumannii DSM 30007, ATCC 19606. Briefly: Antibacterial microdilution broth MIC, ACI. The class given is cell-based.
In test [16] the test system is Staphylococcus aureus CCM 4223, ATCC 29213. Kind of test: Antibacterial microdilution broth MIC, SA. The class given is cell-based. The settings on record: Staphylococcus aureus, internal quality controls, 24h.
Test [17] relates to Staphylococcus epidermidis CCM 4418, ATCC 12228. Kind of test: Antibacterial microdilution broth MIC, SE. The format is cell-based.
The subject of test [18] is Pseudomonas aeruginosa CCM 3955, ATCC 27853. Briefly: Antibacterial microdilution broth MIC, PA. The format is cell-based.
Setting [19] is: read-out: MIC Mtb H37Ra (μg/mL).

The term IC90 denotes the point of the concentration-response curve where the effect stands at 90%. Take `C[C@@H](c1ncncc1F)[C@](O)(Cn1cncn1)c1ccc(F)cc1F` [Voriconazole, voriconazole, reference compound]: the MIC in [1] was more than 16 µg/mL; in test [2], 1 µg/mL (≈ 2.86 µM); in [3], more than 16 µg/mL; in [4], more than 16 µg/mL; in [5], more than 16 µg/mL; in [6], more than 16 µg/mL. The MIC in [7] and in test [8] was more than 16 µg/mL each time. Also, the IC90 was 0.03 µg/mL (≈ 0.0859 µM) in test [1] (read-out: Voriconazole - IC90 spectrophotometric detection, CA); 0.25 µg/mL (≈ 0.716 µM) in [2] (read-out: Voriconazole - IC90 spectrophotometric detection, AF); 0.03 µg/mL (≈ 0.0859 µM) in [3] (read-out: Voriconazole - IC90 spectrophotometric detection, CP); 2 µg/mL (≈ 5.73 µM) in test [4] (read-out: Voriconazole - IC90 spectrophotometric detection, AFla); 0.25 µg/mL (≈ 0.716 µM) in test [5] (read-out: Voriconazole - IC90 spectrophotometric detection, CK); more than 16 µg/mL in [6] (read-out: Voriconazole - IC90 spectrophotometric detection, LC). Moreover, the concentration for an effect of 90% (IC90) in test [7] (read-out: Voriconazole - IC90 spectrophotometric detection, TI) was found to be 1 µg/mL (≈ 2.86 µM); in test [8] (read-out: Voriconazole - IC90 spectrophotometric detection, CT), 2 µg/mL (≈ 5.73 µM).
Turning to `CO[C@H]1/C=C/O[C@@]2(C)Oc3c(C)c(O)c4c(O)c(c(/C=N/N5CCN(C)CC5)c(O)c4c3C2=O)NC(=O)/C(C)=C\C=C\[C@H](C)[C@H](O)[C@@H](C)[C@@H](O)[C@@H](C)[C@H](OC(C)=O)[C@@H]1C` [RIF, rifampicin, reference compound], the MIC was 0.0037 µM in test [9] (read-out: MIC Mtb H37Ra (μM)), 0.00313 µg/mL in test [9] (setting [19]), 1.56 to 6.25 µg/mL (≈ 1.9 to 7.59 µM) in [10] and 0.39 to 0.78 µg/mL (≈ 0.474 to 0.948 µM) in [11].
In the case of `C[C@@H]1[C@H](O)[C@@H](C)/C=C/C=C/C=C/C=C/C=C/C=C/C=C/[C@H](O[C@@H]2O[C@H](C)[C@@H](O)[C@H](N)[C@@H]2O)C[C@@H]2O[C@](O)(C[C@@H](O)C[C@@H](O)[C@H](O)CC[C@@H](O)C[C@@H](O)CC(=O)O[C@H]1C)C[C@H](O)[C@H]2C(=O)O` [Amphotericin B, amphotericin B, reference compound], the MIC in test [1] came to 1 µg/mL (≈ 1.08 µM); in test [2], 4 µg/mL (≈ 4.33 µM); in test [3], 0.5 µg/mL (≈ 0.541 µM); in test [4], 4 µg/mL (≈ 4.33 µM); in [5], 1 µg/mL (≈ 1.08 µM); in test [6] it was 1 µg/mL (≈ 1.08 µM). Moreover, the MIC in test [7] and in test [8] was 1 µg/mL (≈ 1.08 µM) throughout. For the same compound, the IC90 in [1] (read-out: Amphotericin B - IC90 spectrophotometric detection, CA) was 1 µg/mL (≈ 1.08 µM); in [2] (read-out: Amphotericin B - IC90 spectrophotometric detection, AF), 4 µg/mL (≈ 4.33 µM); in test [3] (read-out: Amphotericin B - IC90 spectrophotometric detection, CP), 0.5 µg/mL (≈ 0.541 µM); in [4] (read-out: Amphotericin B - IC90 spectrophotometric detection, AFla), 4 µg/mL (≈ 4.33 µM); in [5] (read-out: Amphotericin B - IC90 spectrophotometric detection, CK), 1 µg/mL (≈ 1.08 µM); in [6] (read-out: Amphotericin B - IC90 spectrophotometric detection, LC), 1 µg/mL (≈ 1.08 µM). Besides, the IC90 in test [7] (read-out: Amphotericin B - IC90 spectrophotometric detection, TI) was 1 µg/mL (≈ 1.08 µM); in test [8] (read-out: Amphotericin B - IC90 spectrophotometric detection, CT), 1 µg/mL (≈ 1.08 µM).
Turning to `O=C(O)c1cn(C2CC2)c2cc(N3CCNCC3)c(F)cc2c1=O` [CIP, ciprofloxacin, reference compound], the MIC was in the range of 0.38 to 0.75 µM in test [9] (read-out: MIC Mtb H37Ra (μM)) and 0.125 to 0.25 µg/mL in [9] (setting [19]).
Consider `CNC(C)C1CCC(N)C(OC2C(N)CC(N)C(OC3OCC(C)(O)C(NC)C3O)C2O)O1` (stereo not shown) [Gentamicin, gentamicin, reference compound], for which the MIC is more than 8 µg/mL in test [12] (read-out: MIC (µg/mL) MRSA, Gentamicin – spectrophotometric detection); more than 8 µg/mL in test [12] (95% inhibition of growth, 530 nm, read-out: MIC (µg/mL) MRSA, spectrophotometric detection); more than 8 µg/mL in test [13] (internal quality controls, 24h, 95% inhibition of growth, 530 nm, read-out: MIC (µg/mL) EF, spectrophotometric detection); more than 8 µg/mL in test [13] (read-out: MIC (µg/mL) EF, Gentamicin – spectrophotometric detection, internal quality controls, 24h); 1 µg/mL (≈ 2.09 µM) in test [14] (internal quality controls, 24h, 95% inhibition of growth, 530 nm, read-out: MIC (µg/mL) EC, spectrophotometric detection); 1 µg/mL (≈ 2.09 µM) in [14] (read-out: MIC (µg/mL) EC, Gentamicin – spectrophotometric detection, internal quality controls, 24h). The MIC was found to be 8 µg/mL (≈ 16.8 µM) in test [15] (internal quality controls, 24h, 95% inhibition of growth, 530 nm, read-out: MIC (µg/mL) ACI, spectrophotometric detection); 8 µg/mL (≈ 16.8 µM) in test [15] (read-out: MIC (µg/mL) ACI, Gentamicin – spectrophotometric detection, internal quality controls, 24h); 0.5 µg/mL (≈ 1.05 µM) in [16] (read-out: MIC (µg/mL) SA, Gentamicin – spectrophotometric detection); 1 µg/mL (≈ 2.09 µM) in [16] (95% inhibition of growth, 530 nm, read-out: MIC (µg/mL) SA, spectrophotometric detection); 0.0625 µg/mL (≈ 0.131 µM) in test [17] (internal quality controls, 24h, 95% inhibition of growth, 530 nm, read-out: MIC (µg/mL) SE, spectrophotometric detection); 0.0625 µg/mL (≈ 0.131 µM) in test [17] (read-out: MIC (µg/mL) SE, Gentamicin – spectrophotometric detection, internal quality controls, 24h). Moreover, the MIC in test [18] (internal quality controls, 24h, 95% inhibition of growth, 530 nm, read-out: MIC (µg/mL) PA, spectrophotometric detection) worked out at 0.5 µg/mL (≈ 1.05 µM); in [18] (read-out: MIC (µg/mL) PA, Gentamicin – spectrophotometric detection, internal quality controls, 24h), 0.5 µg/mL (≈ 1.05 µM).
